The test system of test [1] is human leukemia cells K562. Kind of test: Cell viability assay, human leukemia cells K562. The class given is cell-based. The following applies: 5000 cells per well, 96-well plate, 48 hours with compound, mean of repeats. The protocol: (§1) Specific experimental operations: 5000 human leukemia cells K562 and human lung cancer cells A549 are seeded into 96-well cell culture plates respectively to grow for 24 hours. Then, a predetermined concentration of the above synthesized compounds are added respectively, wherein the antitumor drug cisplatin is used as a control for 48 hours. The mean 50% inhibitory concentration (IC50) of all compounds is then determined. Each concentration is repeated at least three times, and all experiments are repeated three times, and the average results obtained are shown in Table 1.

In test [2] the test system is human lung cancer cells A549. Description: Cell viability assay, human lung cancer cells A549. The class given is cell-based. Conditions: 5000 cells per well, 96-well plate, 48 hours with compound, mean of repeats. The protocol:
as §1

For the compound `C[C@@]12S[C@@](c3ccccc3)(NC1=O)[C@]1([N+](=O)[O-])Oc3ccc([N+](=O)[O-])cc3[C@H]21` [I-ha], the IC50 in test [1] (Homo sapiens, K562, 48 h) came to 22.3 µM; in test [2] (Homo sapiens, A549, 48 h), 67.3 µM.

Turning to `COc1ccc2c(c1)O[C@]1([N+](=O)[O-])[C@H]2[C@]2(C)S[C@@]1(c1ccccc1)NC2=O` [I-ja], the IC50 in test [1] (Homo sapiens, K562, 48 h) amounted to 2.6 µM; in test [2] (Homo sapiens, A549, 48 h) it was 4.83 µM.

For the compound `C[C@@]12S[C@@](c3ccc(Br)cc3)(NC1=O)[C@]1([N+](=O)[O-])Oc3ccccc3[C@H]21` [I-ae], the IC50 was determined as 54.7 µM in test [1] (Homo sapiens, K562, 48 h) and 45.5 µM in test [2] (Homo sapiens, A549, 48 h).

In the case of `C[C@@]12S[C@@](c3ccccc3)(NC1=O)[C@]1([N+](=O)[O-])Oc3c(F)cccc3[C@H]21` [I-ca], the IC50 came out at 19 µM in test [1] (Homo sapiens, K562, 48 h) and 57.7 µM in test [2] (Homo sapiens, A549, 48 h).

With `CC(C)(C)c1ccc2c(c1)[C@@H]1[C@]3(C)S[C@@](c4ccccc4)(NC3=O)[C@]1([N+](=O)[O-])O2` [I-ka], the IC50 is 29.6 µM in test [1] (Homo sapiens, K562, 48 h) and 33 µM in test [2] (Homo sapiens, A549, 48 h).

In the case of `N.N.[Cl][Pt][Cl]` [Cisplatin, cisplatin, reference compound], the results for the IC50 in test [1] and in test [2] were 20.3 µM and 24 µM, respectively.

Consider `C[C@@]12S[C@@](c3ccc(F)cc3)(NC1=O)[C@]1([N+](=O)[O-])Oc3ccccc3[C@H]21` [I-ac], for which the IC50 was 74.6 µM in test [1] (Homo sapiens, K562, 48 h) and 58.2 µM in test [2] (Homo sapiens, A549, 48 h).

Regarding `C[C@@]12S[C@@](c3cccc(Br)c3F)(NC1=O)[C@]1([N+](=O)[O-])Oc3ccccc3[C@H]21` [I-ag], the IC50 in test [1] is 30.2 µM; in test [2], 44.6 µM.

On to `C[C@@]12S[C@@](c3ccccc3)(NC1=O)[C@]1([N+](=O)[O-])Oc3ccc(Cl)cc3[C@H]21` [I-ea], for which the IC50 in test [1] (Homo sapiens, K562, 48 h) worked out at 21.4 µM; in test [2] (Homo sapiens, A549, 48 h) it was 45.3 µM.

`C[C@@]12S[C@@](c3ccccc3)(NC1=O)[C@]1([N+](=O)[O-])Oc3cc(Br)ccc3[C@H]21` [I-ga]: the IC50 amounted to 7.09 µM in test [1] (Homo sapiens, K562, 48 h) and 30.8 µM in test [2] (Homo sapiens, A549, 48 h).

On to `C[C@@]12S[C@@](c3ccccn3)(NC1=O)[C@]1([N+](=O)[O-])Oc3ccccc3[C@H]21` [I-ai], for which the IC50 in test [1] (Homo sapiens, K562, 48 h) was 32.3 µM; in test [2] (Homo sapiens, A549, 48 h) it was 23.9 µM.

As to `C[C@@]12S[C@@](c3ccccc3F)(NC1=O)[C@]1([N+](=O)[O-])Oc3ccccc3[C@H]21` [I-ab], the IC50 in test [1] (Homo sapiens, K562, 48 h) amounted to 52.2 µM; in test [2] (Homo sapiens, A549, 48 h), 57 µM.

For `C[C@@]12S[C@@](c3ccccc3)(NC1=O)[C@]1([N+](=O)[O-])Oc3ccc(F)cc3[C@H]21` [I-ba], the IC50 in test [1] (Homo sapiens, K562, 48 h) was found to be 13 µM; in test [2] (Homo sapiens, A549, 48 h), 32.6 µM.

As to `Cc1ccc2c(c1)O[C@]1([N+](=O)[O-])[C@H]2[C@]2(C)S[C@@]1(c1ccccc1)NC2=O` [I-ia], the IC50 in test [1] (Homo sapiens, K562, 48 h) is 14.5 µM; in test [2] (Homo sapiens, A549, 48 h), 33.3 µM.

As for `COc1cc(Br)cc2c1O[C@]1([N+](=O)[O-])[C@H]2[C@]2(C)S[C@@]1(c1ccccc1)NC2=O` [I-la], the IC50 was 3.1 µM in test [1] (Homo sapiens, K562, 48 h) and 15.6 µM in test [2] (Homo sapiens, A549, 48 h).

Turning to `C[C@@]12S[C@@](c3cccc(Br)c3F)(NC1=O)[C@]1([N+](=O)[O-])Oc3ccccc3[C@H]21` [I-af], the IC50 in test [1] (Homo sapiens, K562, 48 h) was found to be 46.4 µM; in test [2] (Homo sapiens, A549, 48 h) it was 39.5 µM.

Turning to `C[C@@]12S[C@@](c3ccc(Cl)cc3)(NC1=O)[C@]1([N+](=O)[O-])Oc3ccccc3[C@H]21` [I-ad], the IC50 in test [1] (Homo sapiens, K562, 48 h) is 50.2 µM; in test [2] (Homo sapiens, A549, 48 h), 40 µM.

As for `C[C@@]12S[C@@](c3ccc4ccccc4n3)(NC1=O)[C@]1([N+](=O)[O-])Oc3ccccc3[C@H]21` [I-ah], the IC50 was 59.4 µM in test [1] (Homo sapiens, K562, 48 h) and 20.5 µM in test [2] (Homo sapiens, A549, 48 h).

Turning to `C[C@@]12S[C@@](c3ccccc3)(NC1=O)[C@]1([N+](=O)[O-])Oc3cccc(Cl)c3[C@H]21` [I-da], the IC50 is 10.3 µM in test [1] (Homo sapiens, K562, 48 h) and 34.3 µM in test [2] (Homo sapiens, A549, 48 h).

Consider `C[C@@]12S[C@@](c3ccccc3)(NC1=O)[C@]1([N+](=O)[O-])Oc3ccccc3[C@H]21` [I-aa], for which the half-inhibitory concentration (IC50) in test [1] (Homo sapiens, K562, 48 h) came to 12.4 µM; in test [2] (Homo sapiens, A549, 48 h), 28.2 µM.

As to `C[C@@]12S[C@@](c3ccccc3)(NC1=O)[C@]1([N+](=O)[O-])Oc3ccc(Br)cc3[C@H]21` [I-fa], the half-inhibitory concentration (IC50) in test [1] (Homo sapiens, K562, 48 h) came out at 30.9 µM; in test [2] (Homo sapiens, A549, 48 h) it was 67.6 µM.
